From patent US12583820B2, “Broad spectrum antivirals against coronavirus” (priority 2020, dated 2026)
Like-named read-outs stand apart in the source and are kept apart here.

Tests used:
[1] = test system: NV in the replicon harboring cells (HG23 cells); test: microbe, parasite or virus in culture; assay type: cell-based, norovirus (NV); conditions: read-out: EC50 (μM) ± SD
3CLpro of MERS-CoV = 3CLpro of MERS-CoV (Middle East respiratory syndrome-related coronavirus, UniProt K9N7C7); test: biochemical; assay type: biochemical
Sequence of 3CLpro of MERS-CoV (K9N7C7 3248-3553 limits assumed): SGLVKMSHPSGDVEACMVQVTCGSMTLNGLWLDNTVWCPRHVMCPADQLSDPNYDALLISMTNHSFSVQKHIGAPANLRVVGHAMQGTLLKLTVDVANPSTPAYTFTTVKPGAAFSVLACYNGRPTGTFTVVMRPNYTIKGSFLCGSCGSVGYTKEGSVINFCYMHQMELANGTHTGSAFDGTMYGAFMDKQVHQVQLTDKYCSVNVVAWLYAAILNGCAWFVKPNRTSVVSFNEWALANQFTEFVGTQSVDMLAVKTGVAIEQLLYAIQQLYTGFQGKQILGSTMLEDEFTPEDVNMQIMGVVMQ

NV 3CLpro = NV 3CLpro (Norovirus, UniProt Q83883); test: biochemical; assay type: biochemical; conditions: read-out: IC50 (μM) ± SD
Sequence of NV 3CLpro (Q83883 1101-1281): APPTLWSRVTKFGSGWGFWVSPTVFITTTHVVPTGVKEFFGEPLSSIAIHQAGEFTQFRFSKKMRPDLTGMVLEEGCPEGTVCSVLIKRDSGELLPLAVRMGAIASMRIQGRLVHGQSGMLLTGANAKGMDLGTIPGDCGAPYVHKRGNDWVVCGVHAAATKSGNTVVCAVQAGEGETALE

MHV-1 = test: microbe, parasite or virus in culture; assay type: cell-based, mouse hepatitis virus (MHV); conditions: Murine coronavirus, read-out: EC50 in cell culture (μM) MHV
FIPV = test: microbe, parasite or virus in culture; assay type: cell-based; conditions: Alphacoronavirus 1, CRFK, read-out: EC50 in cell culture (μM) FIPV
3CLpro of SARS-CoV = 3CLpro of SARS-CoV (Severe acute respiratory syndrome coronavirus, UniProt P0C6X7); assay type: biochemical; conditions: read-out: IC50 in enzyme assay (μM) SARS-CoV
[2] = Nonspecific cytotoxic effects (CC50), CytoTox 96 kit; conditions: Huh-7, CRFK or CCL1 cells (confluent, 96-well plates)
[3] = test system: Huh-7, CRFK or CCL1 cells; test: as above
MERS-CoV = test: microbe, parasite or virus in culture; assay type: cell-based
[4] = test system: feline infectious peritonitis (FIP), a coronavirus-induced systemic disease; conditions: cited from earlier work
3CLpro of SARS-CoV-2 = biological target: T1, 3CLpro of SARS-CoV-2 (Severe acute respiratory syndrome coronavirus 2, UniProt P0DTD1); test: biochemical; assay type: biochemical; conditions: read-out: SARS-CoV-2 IC50 (μM) enzyme
T1 construct: The codon-optimized cDNA of full length of 3CLpro of SARS-CoV-2; 6xHis (N); made in house; pET-28a(+) vector (points to E. coli, my inference)

SARS-CoV-2 = test: microbe, parasite or virus in culture; assay type: cell-based; conditions: read-out: SARS-CoV-2 EC50 (μM) Cell culture
[5] = read-out: MERS-CoV IC50 (uM) enzyme
[6] = Huh-7, CRFK, or CCL1 cells, Table 7

Compound	EC50 [1] [µM]	CC50 (HG23 cells) [µM]	IC50 (NV 3CLpro) [µM]	other results
CC(C)(Cc1cccc(Cl)c1)OC(=O)N[C@@H](CC1CCCCC1)C(=O)N[C@H](C=O)C[C@@H]1CCNC1=O [Compound 5h (Scheme 2)]	5.4 ± 1.1	15.6 ± 1.8	7.7 ± 1.7	IC50 (3CLpro of MERS-CoV; [5]): > 10 µM
CC(C)C[C@H](NC(=O)OCC1CCC(F)(F)CC1)C(=O)N[C@@H](C[C@@H]1CCNC1=O)C(O)S(=O)(=O)O (stereo partly drawn) [Compound 7j (Scheme 1), sodium (2S)-2-((S)-2-((((4,4-difluorocyclohexyl)methoxy)carbonyl)amino)-4-methylpentan-amido)-1-hydroxy-3-((S)-2-oxopyrrolidin-3-yl)propane-1-sulfonate]				EC50 (MHV-1): 0.16 µM; EC50 (FIPV): 0.07 µM; IC50 (3CLpro of SARS-CoV): 1.1 µM; IC50 (3CLpro of MERS-CoV; read-out: IC50 in enzyme assay (μM) MERS-CoV): 0.1 µM; CC50 at 72 h [2]: > 100 µM
CC(C)C[C@H](NC(=O)OCCCc1cccc(Cl)c1)C(=O)N[C@@H](C[C@@H]1CCNC1=O)C(O)S(=O)(=O)O (some centres unmarked) [Compound 6n]	0.09 ± 0.01	> 100	0.19 ± 0.06	
CC(C)C[C@H](NC(=O)OCCCc1ccccc1)C(=O)N[C@H](C=O)C[C@@H]1CCNC1=O [Compound 5m]	0.77 ± 0.06	> 100	0.75 ± 0.07	
Sodium (2S)-2-((S)-2-((((4,4-difluorocyclohexyl) methoxy-d2) carbonyl) amino)-4-methylpentanamido)-1-hydroxy-3-(2-oxopyrrolidin-3-yl) propane-1-sulfonate [Compound 11c]				CC50 [3, 6]: > 100 µM
CC(C)C[C@H](NC(=O)OCc1ccccc1)C(=O)N[C@@H](C[C@@H]1CCNC1=O)C(O)S(=O)(=O)[O-].[Na+] (some centres unmarked) [GC376, reference compound]				EC50 (MERS-CoV; read-out: EC50 in cell culture (μM) MERS-CoV): […]; clinical efficacy in cats with feline infectious peritonitis (FIP) [4]: reversed the progression of FIP and resulted in clinical remission; CC50 ([3]; 72 h, 1 to 100 μM, Table 1): > 100 µM
CC(C)(OC(=O)N[C@@H](CC1CCCCC1)C(=O)N[C@H](C=O)C[C@@H]1CCNC1=O)c1cccc(Cl)c1 [Compound 5a (Scheme 2)]	3.7 ± 2.3	> 100	2.9 ± 0.9	IC50 (3CLpro of MERS-CoV; [5]): 11.5 µM
CC(C)C[C@H](NC(=O)OCCCc1cccc(Cl)c1)C(=O)N[C@H](C=O)C[C@@H]1CCNC1=O [Compound 5n]	0.16 ± 0.06	> 100	0.26 ± 0.08	
CC(C)C[C@H](NC(=O)OC/C=C/c1cccc(Cl)c1)C(=O)N[C@@H](C[C@@H]1CCNC1=O)C(O)S(=O)(=O)O (some centres unmarked) [Compound 6t]	0.08 ± 0.02	> 100	0.11 ± 0.02	
CC(C)C[C@H](NC(=O)OCC(C)(C)Cc1cccc(Cl)c1)C(=O)N[C@@H](C[C@@H]1CCNC1=O)C(O)S(=O)(=O)O (some centres unmarked) [Compound 6o]	0.15 ± 0.08	> 100	0.16 ± 0.03	
CC(C)C[C@H](NC(=O)OC(C)(C)Cc1cccc(Cl)c1)C(=O)N[C@H](C=O)C[C@@H]1CCNC1=O [Compound 5i (Scheme 2)]	0.9 ± 0.21	> 100	1.2 ± 0.5	IC50 (3CLpro of MERS-CoV; [5]): 1.1 µM
O=C(N[C@@H](CC1CCCCC1)C(=O)N[C@@H](C[C@@H]1CCNC1=O)C(O)S(=O)(=O)O)OC1(c2cccc(Cl)c2)CC1 (some centres unmarked) [Compound 6q]	0.18 ± 0.04	42.3 ± 15.6	0.27 ± 0.04	
CC(C)C[C@H](NC(=O)OCC(C)(C)c1cccc(Cl)c1)C(=O)N[C@H](C=O)C[C@@H]1CCNC1=O [Compound 5g (Scheme 2)]	0.17 ± 0.05	> 100	0.27 ± 0.04	EC50 (MERS-CoV; read-out: MERS-CoV EC50 (μM) Cell culture): 0.05 µM; IC50 (3CLpro of MERS-CoV; read-out: MERS-CoV IC50(μM) Enzyme): 0.08 µM; IC50 (3CLpro of SARS-CoV-2): 0.3 µM; EC50 (SARS-CoV-2): 0.18 µM
Sodium (2S)-1-hydroxy-2-((S)-4-methyl-2-(((((1s,4S)-4-propylcyclohexyl) methoxy-d2) carbonyl) amino) pentanamido)-3-(2-oxopyrrolidin-3-yl) propane-1-sulfonate [Compound 9c]				CC50 [3, 6]: > 100 µM
